Results on 27 molecules are retold here after patent US11548899B2, “Fused 1,4-oxazepines and related analogs as BET bromodomain inhibitors” (THE REGENTS OF THE UNIVERSITY OF MICHIGAN, priority 2016, dated 2023).

SMILES strings stand for the structures. “And” between values parts separate entries of the source, which are not always exact repeats. Equal values may be shown once. Read-outs that look alike come from different tables or passages of the source.

This assay deals with T1, recombinant BRD4 BD1 (Homo sapiens, UniProt O60885).
T1 construct: recombinant BRD4 BD1 and BRD4 BD2 proteins
The experiment in a line: Competitive fluorescence-polarization (FP) binding assay, BRD4 BD1. The settings on record: protein 10 nM, probe 1.5 nM.

[1] abbreviates: FP competitive binding, read-out: IC50 (nM) BRD4 BD1.

A word on the IC50: it is the concentration that inhibits the measured activity by half.

Experimental: Fluorescence Polarization (FP) competitive binding studies were carried out using a FAM labeled fluorescent probe, see Cpd. […] Equilibrium dissociation constants (Kd) values of the fluorescent probe to BRD4 BD1 and BD2 proteins were determined from protein saturation experiments by monitoring the total fluorescence polarization of mixtures composed with the fluorescent probe at a fixed concentration and proteins with increasing concentrations up to full saturation. […] Plates were incubated at room temperature for 30 minutes with gentle shaking to assure equilibrium.
The IC50 and Ki values of compounds were determined in a competitive binding experiment. […] Mixtures of 10 μl of the tested compounds in assay buffer with 40% Ethylene Glycol and 190 μl of preincubated protein/probe complex solution in the assay buffer (100 mM potassium phosphate, pH 6.5, 0.01% Triton X-100) were added into assay plates which were incubated at room temperature for 30 minutes with gentle shaking. Final concentrations of proteins were 10 and 6 nM in assays for BRD4 BD1 and BD2, respectively. […] FP values were measured as described above. IC50 values were determined by nonlinear regression fitting of the competition curves.

In the case of `Cc1cc2c(s1)-n1c(C)nnc1COC2` [Cpd. No. 1, 2,9-dimethyl-4H,6H-thieno[2,3-e][1,2,4]triazolo[3,4-c][1,4]oxazepine], the IC50 under setting [1] is 66900 nM.
Still for that read-out and setting: the value for `Cc1sc2c(c1Br)COCc1nnc(C)n1-2` [Cpd. No. 2, 3-bromo-2,9-dimethyl-4H,6H-thieno[2,3-e][1,2,4]triazolo[3,4-c][1,4]oxazepine] was 23200 nM; that for `Cc1sc2c(c1-c1ccccc1)COCc1nnc(C)n1-2` [Cpd. No. 3, 2,9-dimethyl-3-phenyl-4H,6H-thieno[2,3-e][1,2,4]triazolo[3,4-c][1,4]oxazepine] was 13300 nM.
On to `Cc1nnc2n1-c1scc(Cc3ccccc3)c1COC2` [Cpd. No. 30, 3-benzyl-9-methyl-4H,6H-thieno[2,3-e][1,2,4]triazolo[3,4-c][1,4]oxazepine], for which the IC50 under setting [1] stood at 1390 nM.
Same read-out and setting: then `Cc1sc2c(c1C1=CCc3ccccc31)COCc1nnc(C)n1-2` [Cpd. No. 53, 3-(1H-inden-3-yl)-2,9-dimethyl-4,6-dihydrothieno[2,3-e][1,2,4]triazolo[3,4-c][1,4]oxazepine], with 244 nM; and `Cc1sc2c(c1C1CCc3ccccc31)COCc1nnc(C)n1-2` (stereo not drawn) [Cpd. No. 55, 3-(2,3-dihydro-1H-inden-1-yl)-2,9-dimethyl-4,6-dihydrothieno[2,3-e][1,2,4]triazolo[3,4-c][1,4]oxazepine], with 288 nM; and `Cc1sc2c(c1C1=CCCCc3ccccc31)COCc1nnc(C)n1-2` [Cpd. No. 56, 3-(6,7-dihydro-5H-benzo[7]annulen-9-yl)-2,9-dimethyl-4,6-dihydrothieno[2,3-e][1,2,4]triazolo[3,4-c][1,4]oxazepine], with 134 nM.
Consider `Cc1sc2c(c1C1=CCCc3cc(F)ccc31)COCc1nnc(C)n1-2` [Cpd. No. 57, 3-(6-fluoro-3,4-dihydronaphthalen-1-yl)-2,9-dimethyl-4,6-dihydrothieno[2,3-e][1,2,4]triazolo[3,4-c][1,4]oxazepine], for which, under setting [1], the half-inhibitory concentration (IC50) worked out at 198 nM.
Turning to `Cc1sc2c(c1C1=CCCc3ccc(F)cc31)COCc1nnc(C)n1-2` [Cpd. No. 58, 3-(7-fluoro-3,4-dihydronaphthalen-1-yl)-2,9-dimethyl-4,6-dihydrothieno[2,3-e][1,2,4]triazolo[3,4-c][1,4]oxazepine], under setting [1], the IC50 came to 289 nM.
Same read-out and setting: the value for `Cc1nnc2n1-c1cccc(C3=CCCCc4ccccc43)c1COC2` [Cpd. No. 59, 7-(6,7-dihydro-5H-benzo[7]annulen-9-yl)-1-methyl-4,6-dihydrobenzo[e][1,2,4]triazolo[3,4-c][1,4]oxazepine] was 966 nM; that for `Cc1nnc2n1-c1cccc(C3CCCCc4ccccc43)c1COC2` (stereo not drawn) [Cpd. No. 60, 1-methyl-7-(6,7,8,9-tetrahydro-5H-benzo[7]annulen-5-yl)-4,6-dihydrobenzo[e][1,2,4]triazolo[3,4-c][1,4]oxazepine] was 1150 nM; that for `Cc1nnc2n1-c1ccc(Cl)c(Br)c1COC2` [Cpd. No. 70, 7-bromo-8-chloro-1-methyl-4,6-dihydrobenzo[e][1,2,4]triazolo[3,4-c][1,4]oxazepine] was over 10000 nM.
Same read-out and setting: then `Cc1nnc2n1-c1ccc(-c3ccc(N)nc3)c(Cc3ccccc3)c1COC2` [Cpd. No. 72, 5-(7-benzyl-1-methyl-4,6-dihydrobenzo[e][1,2,4]triazolo[3,4-c][1,4]oxazepin-8-yl)pyridin-2-amine], with 2070 nM and 1980 nM.
With `Cc1nnc2n1-c1ccc(Cl)c(C3=CCCc4ccccc43)c1COC2` [Cpd. No. 74, 8-chloro-7-(3,4-dihydronaphthalen-1-yl)-1-methyl-4,6-dihydrobenzo[e][1,2,4]triazolo[3,4-c][1,4]oxazepine], the concentration for half-maximal inhibition (IC50) (IC50 (nM) BRD4 BD1, FP competitive binding) came out at 1780 nM.
For the molecule `Cc1nnc2n1-c1ccc(-c3cn[nH]c3)c(Cc3ccccc3)c1COC2` [Cpd. No. 75, 7-benzyl-1-methyl-8-(1H-pyrazol-4-yl)-4,6-dihydrobenzo[e][1,2,4]triazolo[3,4-c][1,4]oxazepine], the half-maximal inhibitory concentration (IC50) under setting [1] amounted to 923 nM.
Still for that read-out and setting: then `Cc1nnc2n1-c1ccc(-c3cnn(CC(N)=O)c3)c(Cc3ccccc3)c1COC2` [Cpd. No. 76, 2-(4-(7-benzyl-1-methyl-4,6-dihydrobenzo[e][1,2,4]triazolo[3,4-c][1,4]oxazepin-8-yl)-1H-pyrazol-1-yl)acetamide], with 937 nM.
Same read-out and setting: the value for `Cc1nnc2n1-c1ccc(C3=CCOCC3)c(Cc3ccccc3)c1COC2` [Cpd. No. 77, 7-benzyl-8-(3,6-dihydro-2H-pyran-4-yl)-1-methyl-4,6-dihydrobenzo[e][1,2,4]triazolo[3,4-c][1,4]oxazepine] was 13200 nM; that for `Cc1nnc2n1-c1ccc(C3=COCC3)c(Cc3ccccc3)c1COC2` [Cpd. No. 78, 7-benzyl-8-(4,5-dihydrofuran-3-yl)-1-methyl-4,6-dihydrobenzo[e][1,2,4]triazolo[3,4-c][1,4]oxazepine] was 1320 nM; that for `Cc1nnc2n1-c1ccc(C3CCOCC3)c(Cc3ccccc3)c1COC2` [Cpd. No. 79, 7-benzyl-1-methyl-8-(tetrahydro-2H-pyran-4-yl)-4,6-dihydrobenzo[e][1,2,4]triazolo[3,4-c][1,4]oxazepine] was 18100 nM.
Still for that read-out and setting: then `Cc1nnc2n1-c1ccc(-c3ccoc3)c(Cc3ccccc3)c1COC2` [Cpd. No. 80, 7-benzyl-8-(furan-3-yl)-1-methyl-4,6-dihydrobenzo[e][1,2,4]triazolo[3,4-c][1,4]oxazepine], with 532 nM; and `Cc1nnc2n1-c1ccc(C3CCOC3)c(Cc3ccccc3)c1COC2` (stereo not drawn) [Cpd. No. 81, 7-benzyl-1-methyl-8-(tetrahydrofuran-3-yl)-4,6-dihydrobenzo[e][1,2,4]triazolo[3,4-c][1,4]oxazepine], with 5420 nM; and `Cc1nnc2n1-c1ccc(C#C[Si](C)(C)C)c(Cc3ccccc3)c1COC2` [Cpd. No. 82, 7-benzyl-1-methyl-8-((trimethylsilyl)ethynyl)-4,6-dihydrobenzo[e][1,2,4]triazolo[3,4-c][1,4]oxazepine], with 500 nM.
`C#Cc1ccc2c(c1Cc1ccccc1)COCc1nnc(C)n1-2` [Cpd. No. 83, 7-benzyl-8-ethynyl-1-methyl-4,6-dihydrobenzo[e][1,2,4]triazolo[3,4-c][1,4]oxazepine]: under setting [1], the IC50 was 150 nM.
On the same count and under the same terms, the value for `Cc1nnc2n1-c1sc(CN3CCOCC3)c(Cc3ccccc3)c1COC2` [Cpd. No. 90, 3-benzyl-9-methyl-2-(morpholinomethyl)-4H,6H-thieno[2,3-][1,2,4]triazolo[3,4-c][1,4]oxazepine] was 6510 nM; that for `C=C(C)c1sc2c(c1Cc1ccccc1)COCc1nnc(C)n1-2` [Cpd. No. 94, 3-benzyl-9-methyl-2-(prop-1-en-2-yl)-4H,6H-thieno[2,3-e][1,2,4]triazolo[3,4-c][1,4]oxazepine] was 1050 nM; that for `Cc1nnc2n1-c1sc(C3=CCOCC3)c(Cc3ccccc3)c1COC2` [Cpd. No. 95, 3-benzyl-2-(3,6-dihydro-2H-pyran-4-yl)-9-methyl-4H,6H-thieno[2,3-e][1,2,4]triazolo[3,4-c][1,4]oxazepine] was 1820 nM.
Still for that read-out and setting: the value for `Cc1nnc2n1-c1sc(C3CCOCC3)c(Cc3ccccc3)c1COC2` [Cpd. No. 97, 3-benzyl-9-methyl-2-(tetrahydro-2H-pyran-4-yl)-4H,6H-thieno[2,3-e][1,2,4]triazolo[3,4-c][1,4]oxazepine] was 6710 nM.
